The Cmax is the highest concentration seen after dosing. By AUC(0-t) is commonly meant exposure summed from dosing to a finite time, without extrapolation to infinity. Low readings indicate low exposure, high ones high exposure. In general, AUC(0-inf) refers to the area under the concentration-time curve extrapolated to infinity. A lower AUC(0-inf) goes with low exposure. In general, CL/F refers to the apparent clearance, not corrected for the fraction that reaches the circulation. A word on the bioavailability: it is the share of a dose that reaches the circulation, judged against a reference dose that is usually intravenous. In general, Tmax refers to the time at which the peak concentration occurs.

The nature of data set [1]: Prodrug conversion in human plasma assessed as drug release measured after 24 hrs by HPLC analysis. It is filed as ADME, cell-free.
The nature of data set [2]: Prodrug conversion in human plasma assessed as formation of O-(2-morpholinoacetyl)cannabidiol metabolite measured for 1 hr by HPLC analysis. It is filed as ADME, cell-free.
Data set [3] in a line: Thermodynamic equilibrium solubility in water at 1 to 1200 ug incubated for 4 hrs by absorbance based assay. It is filed as physicochemical. The conditions noted are these: dose 1-1200 µg, read-out: Therm_solubility.
Data set [4] in a line: Thermodynamic equilibrium solubility SGF at 1 to 1200 ug incubated for 4 hrs by absorbance based assay. It is filed as physicochemical. The note with it: dose 1-1200 µg, read-out: Therm_solubility.
Data set [5] can be described thus: Thermodynamic equilibrium solubility SIF at 1 to 1200 ug incubated for 4 hrs by absorbance based assay. It is filed as physicochemical. The note with it: dose 1-1200 µg, read-out: Therm_solubility.
The nature of data set [6]: Volume of distribution in fasted Swiss mouse at 75 mg/kg, po equivalent to Cannabidiol measured for 24 hrs by LCMS/MS analysis. It is filed as ADME, organism-based. The conditions noted are these: in vivo.
Data set [7] can be described thus: Volume of distribution at steady state in fasted Wistar rat at 75 mg/kg, po equivalent to Cannabidiol measured for 24 hrs by LCMS/MS analysis. It is filed as ADME, organism-based. The note with it: in vivo.
In data set [8] the test system is Mus musculus. Kind of data set: Antiepileptic activity in MES Swiss Albino mouse model assessed as decrease in convulsion duration at 75 mg/kg, po equivalent to Cannabidiol pretreated for 30 mins followed by induction of epileptic seizures measured for 1 to 8 hrs. It is filed as functional, organism-based. The note with it: time 1.5-8.5 hrs.
Data set [9] can be described thus: Prodrug conversion in human plasma assessed as formation of O-{2-(4-cyclopropylpiperazin-1-yl)acetyl}cannabidiol metabolite measured for 1 to 8 hrs by HPLC analysis. It is filed as ADME, cell-free. The conditions noted are these: time 1-8 hrs.
The nature of data set [10]: Stability in Balb/C mouse plasma assessed as compound degradation at 10 uM incubated for 2 hrs by LC-MS/MS analysis. It is filed as ADME, cell-free. The conditions noted are these: read-out: Drug degradation.
Data set [11] is described as follows: Chemical stability in SIF at 2 mg/ml incubated for 2 hrs by HPLC analysis. It is filed as physicochemical. The conditions noted are these: read-out: Stability.
Data set [12] in a line: Chemical stability in water at 2 mg/ml incubated for 2 hrs by HPLC analysis. It is filed as physicochemical. The note with it: read-out: Stability.
The nature of data set [13]: Chemical stability in SGF at 2 mg/ml incubated for 2 hrs by HPLC analysis. It is filed as physicochemical. The note with it: read-out: Stability.
Data set [14] is described as follows: Cmax in fasted Swiss mouse at 75 mg/kg, po measured for 24 hrs by LCMS/MS analysis. The note with it: in vivo. It is filed as ADME, organism-based. Also on record: dose 75 mg/kg, time 24 hrs, route po.
The nature of data set [15]: AUC (0 to t) in fasted Swiss mouse at 75 mg/kg, po measured for 24 hrs by LCMS/MS analysis. It is filed as ADME, organism-based. Details: time 24 hrs, dose 75 mg/kg, route po. The conditions noted are these: in vivo.
Data set [16] can be described thus: AUC (0 to infinity) in fasted Swiss mouse at 75 mg/kg, po measured for 24 hrs by LCMS/MS analysis. It is filed as ADME, organism-based. Also on record: dose 75 mg/kg, time 24 hrs, route po. The conditions noted are these: in vivo.
Data set [17] is described as follows: Volume of distribution in fasted Swiss mouse at 75 mg/kg, po measured for 24 hrs by LCMS/MS analysis. It is filed as ADME, organism-based. The conditions noted are these: in vivo.
The nature of data set [18]: Clearance in fasted Swiss mouse at 75 mg/kg, po measured for 24 hrs by LCMS/MS analysis. It is filed as ADME, organism-based. The conditions noted are these: in vivo.
Data set [19] can be described thus: Cmax in fasted Wistar rat at 75 mg/kg, po measured for 24 hrs by LCMS/MS analysis. It is filed as ADME, organism-based. Details: time 24 hrs, dose 75 mg/kg, route po. The conditions noted are these: in vivo.
Data set [20] can be described thus: AUC (0 to t) in fasted Wistar rat at 75 mg/kg, po measured for 24 hrs by LCMS/MS analysis. The conditions noted are these: in vivo. It is filed as ADME, organism-based. Also on record: dose 75 mg/kg, time 24 hrs, route po.
Data set [21] is described as follows: AUC (0 to infinity) in fasted Wistar rat at 75 mg/kg, po measured for 24 hrs by LCMS/MS analysis. It is filed as ADME, organism-based. The note with it: in vivo. Details: time 24 hrs, dose 75 mg/kg, route po.
Data set [22] is described as follows: Volume of distribution at steady state in fasted Wistar rat at 75 mg/kg, po measured for 24 hrs by LCMS/MS analysis. It is filed as ADME, organism-based. The conditions noted are these: in vivo.
Data set [23] is described as follows: Clearance in fasted Wistar rat at 75 mg/kg, po measured for 24 hrs by LCMS/MS analysis. It is filed as ADME, organism-based. The note with it: in vivo.
The nature of data set [24]: Oral bioavailability in Swiss mouse at 5 mg/kg measured for 24 hrs by LCMS/MS analysis. It is filed as ADME, organism-based. The conditions noted are these: in vivo.
The nature of data set [25]: in vivo. The note with it: Swiss, mouse, po, 75 mg/kg.
Description: Tmax in fasted Swiss mouse at 75 mg/kg, po measured for 24 hrs by LCMS/MS analysis
Data set [26] in a line: in vivo. The conditions noted are these: Wistar, rat, po, 75 mg/kg.
Description: Tmax in fasted Wistar rat at 75 mg/kg, po measured for 24 hrs by LCMS/MS analysis

Molecules are shown by their SMILES. Values after ≈ are worked out from the molar mass of the structure shown. Active and inactive are the calls of the source. No cut-off for these calls is given here.

In the case of `C=C(C)[C@@H]1CCC(C)=C[C@H]1c1c(O)cc(CCCCC)cc1OC(=O)CN1CCC(O)CC1`, in [1], the Drug metabolism is on record as 73%.

In the case of `C=C(C)[C@@H]1CCC(C)=C[C@H]1c1c(OC(=O)CN2CCOCC2)cc(CCCCC)cc1OC(=O)CN1CCOCC1`, the Drug metabolism in data set [1] is 52%; in data set [2], “Metabolite_Detected”. The figures for the solubility thermodynamic at 4 h in data set [3], in data set [4] and in data set [5] were 120 µg/mL (≈ 211 µM), 4000 µg/mL (≈ 7030 µM) and 120 µg/mL (≈ 211 µM), respectively. Moreover, the Vd in [6] was 224 L/kg. In addition, the Vdss in data set [7] came out at 93 L/kg. In [8], the result was Active.

As for `C=C(C)[C@@H]1CCC(C)=C[C@H]1c1c(OC(=O)CN2CCN(C3CC3)CC2)cc(CCCCC)cc1OC(=O)CN1CCN(C2CC2)CC1`, the Drug metabolism in [1] is given as 27%; in data set [9], “Metabolite_Detected”.

`C=C(C)[C@@H]1CCC(C)=C[C@H]1c1c(O)cc(CCCCC)cc1OC(=O)CN1CCN(c2ccccc2)CC1`: the Drug metabolism in data set [1] was 9.2%.

Turning to `C=C(C)[C@@H]1CCC(C)=C[C@H]1c1c(O)cc(CCCCC)cc1OC(=O)CN1CCN(C2CC2)CC1`, in data set [1], the Drug metabolism is given as 56%.

Regarding `C=C(C)[C@@H]1CCC(C)=C[C@H]1c1c(O)cc(CCCCC)cc1OC(=O)CN1CCN(C)CC1`, in data set [1], the Drug metabolism is recorded as 59%.

Take `C=C(C)[C@@H]1CCC(C)=C[C@H]1c1c(O)cc(CCCCC)cc1OC(=O)CN1CCN(C(C)C)CC1`: the Drug metabolism in data set [1] amounted to 78%.

Regarding `O=C(/C=C/C=C/c1ccc2c(c1)OCO2)N1CCCCC1` [PIPERINE], the figures for the solubility thermodynamic at 4 h in data set [3], in data set [4] and in data set [5] were 40 µg/mL (≈ 140 µM), 40 µg/mL (≈ 140 µM) and 60 µg/mL (≈ 210 µM), respectively.

With `C=C(C)[C@@H]1CCC(C)=C[C@H]1c1c(O)cc(CCCCC)cc1OC(=O)CN1CCOCC1`, in data set [1], the Drug metabolism was determined as 84%. The solubility thermodynamic at 4 h in data set [3] came to 40 µg/mL (≈ 90.6 µM); in [4], 400 µg/mL (≈ 906 µM); in data set [5], 80 µg/mL (≈ 181 µM). Besides, the Vd in data set [6] was found to be 108 L/kg. The Vdss in data set [7] was 32 L/kg.

Turning to `C=C(C)[C@@H]1CCC(C)=C[C@H]1c1c(O)cc(CCCCC)cc1OC(=O)CN1CCC(c2ccccc2)CC1`, the Drug metabolism in data set [1] is 4.6%.

Regarding `CCOC(=O)[C@H](CCc1ccccc1)N[C@@H](C)C(=O)N1CCC[C@H]1C(=O)O` [ENALAPRIL], the metabolised at 2 h, 10 µM in [10] is above 80%.

On to `C=C(C)[C@@H]1CCC(C)=C[C@H]1c1c(O)cc(CCCCC)cc1OC(=O)CN1CCCC1`, for which, in data set [1], the Drug metabolism is recorded as 74%.

With `O=C(O)CN1CCOCC1`, the remaining at 2 h, 2 mg/ml in [11] and in data set [12] was at least 74% throughout.

For the compound `C=C(C)[C@@H]1CCC(C)=C[C@H]1c1c(O)cc(CCCCC)cc1O` [CANNABIDIOL], the solubility thermodynamic at 4 h in data set [3], in [4] and in data set [5] was below 5 µg/mL each time. For the same compound, the remaining at 2 h, 2 mg/ml in [13], in [11] and in [12] was at least 74% in each case. Besides, the highest concentration (Cmax) in data set [14] is 669 ng/mL; in data set [19], 728 ng/mL. In addition, the AUC(0-t) at 24 h stood at 4660 ng·h/mL in data set [15] and 9460 ng·h/mL in data set [20]. For the same compound, the AUC(0-inf) in [16] was 4870 ng·h/mL; in [21], 10200 ng·h/mL. The compound also had a Vd in data set [17] of 137 L/kg. Moreover, the values for the apparent clearance CL/F in [18] and in [23] were 250 mL/min/kg and 123 mL/min/kg, respectively. In addition, the Vdss in [22] is 77 L/kg. Further, the bioavailability in data set [24] was determined as 24%. Besides, the time to peak (Tmax) at 24 h in data set [25] was 2 h; in [26] it was 8 h.

Values taken from ChEMBL document CHEMBL5357074, “Cannabidiol-Based Prodrugs: Synthesis and Bioevaluation” (ACS Med Chem Lett, 2024).
